The subject of data set [1] is HT-29. Put plainly: Cytotoxicity against human HT-29 cells assessed as cell viability at 25 uM incubated for 48 hrs by MTT assay. It is filed as functional. The note with it: read-out: Activity.
Data set [2] concerns SW480. Description: Cytotoxicity against human SW480 cells assessed as cell viability at 25 uM incubated for 48 hrs by MTT assay. It is filed as functional. The note with it: read-out: Activity. For orientation: Tetrazolium assays rely on reduction of a dye to a coloured formazan, in cell work by metabolically active cells.
The test system of data set [3] is HT-29. Put plainly: Cytotoxicity against human HT-29 cells assessed as reduction in cell viability incubated for 48 hrs by MTT assay. The note with it: HT-29, 48 h. It is filed as functional, cell-based.
Data set [4] concerns SW480. Description: Cytotoxicity against human SW480 cells assessed as reduction in cell viability incubated for 48 hrs by MTT assay. In kind it is functional, cell-based. Conditions: SW480, 48 h.
Data set [5] deals with SW480. Put plainly: Antitumor activity against human SW480 cells xenografted in BALB/c mouse assessed as increase in body weight at 0.019 mg/kg, iv administered once every 2 days and measured after 12 days. In kind it is functional, organism-based. Conditions: time 12.0 day. On the technique in general: A xenograft is tissue or cells of one species grown in another, often human tumour cells in immunodeficient mice.

In data set [6] the test system is SW480. Description: Antitumor activity against human SW480 cells xenografted in BALB/c mouse assessed as reduction in tumor volume at 0.019 mg/kg, iv administered once every 2 days and measured on day 18. In kind it is functional. The arrangement: scale not given: the % may be the effect or the level left. The note with it: time 18 day.
In data set [7] the test system is SW480. Put plainly: Antitumor activity against human SW480 cells xenografted in BALB/c mouse assessed as tumor inhibition rate at 0.019 mg/kg, iv administered once every 2 days for 18 days. It is filed as functional. Set-up: scale not given: the % may be the effect or the level left. The note with it: time 18 day.
The subject of data set [8] is SW480. Put plainly: Antitumor activity against human SW480 cells xenografted in BALB/c mouse assessed as tumor burden at 0.019 mg/kg, iv administered once every 2 days for 18 days (reference value: 1.88%). The note with it: time 18 day. In kind it is functional.
Data set [9] is described as follows: Drug distribution in BALB/c mouse spleen xenografted with human A549 cells at 2.5 mg/kg, iv measured after 24 hrs by HPLC analysis. The note with it: in vivo. In kind it is ADME, organism-based.
Data set [10] in a line: Drug distribution in BALB/c mouse lung xenografted with human A549 cells at 2.5 mg/kg, iv measured after 24 hrs by HPLC analysis. It is filed as ADME, organism-based. Conditions: in vivo.
Data set [11] can be described thus: Drug distribution in BALB/c mouse heart xenografted with human A549 cells at 2.5 mg/kg, iv measured after 24 hrs by HPLC analysis. In kind it is ADME, organism-based. The note with it: in vivo.
Data set [12] is described as follows: Drug distribution in BALB/c mouse spleen xenografted with human A549 cells at 2.5 mg/kg, sc measured after 24 hrs by HPLC analysis. In kind it is ADME, organism-based. Conditions: in vivo.
The nature of data set [13]: Drug distribution in BALB/c mouse lung xenografted with human A549 cells at 2.5 mg/kg, sc measured after 24 hrs by HPLC analysis. It is filed as ADME, organism-based. Conditions: in vivo.
The nature of data set [14]: Drug distribution in BALB/c mouse heart xenografted with human A549 cells at 2.5 mg/kg, sc measured after 24 hrs by HPLC analysis. In kind it is ADME, organism-based. Conditions: in vivo.
Data set [15] in a line: Drug uptake in human SW480 cells assessed as increase in blue fluorescence at 30 uM incubated for 1 hr by DRAQ5 staining based confocal microscopy analysis. The note with it: sw480, 1 h. It is filed as ADME, cell-based.
The subject of data set [16] is HT-29. Description: Cytotoxicity against human HT-29 cells assessed as reduction in cell viability at 10 to 50 uM incubated for 48 hrs by MTT assay. In kind it is functional, cell-based. The note with it: dose 10-50 µM.
Data set [17] has as its system HT-29. Put plainly: Cytotoxicity against human HT-29 cells assessed as reduction in cell viability at greater than 0.078 uM incubated for 48 hrs by MTT assay. It is filed as functional, cell-based.
For data set [18], the system named is HT-29. Description: Potency index, ratio of CPT IC50 to test compound IC50 for cytotoxicity against human HT-29 cells. In kind it is functional.
In data set [19] the test system is SW480. Put plainly: Potency index, ratio of CPT IC50 to test compound IC50 for cytotoxicity against human SW480 cells. In kind it is functional.
For another data set, the system named is THP-1. Put plainly: Cytotoxicity against human THP-1 cells assessed as reduction in cell viability incubated for 48 hrs by MTT assay. In kind it is toxicity, cell-based. The note with it: thp-1, 48 h.
A further data set relates to CCD-18Co. Description: Cytotoxicity against human CCD-18Co cells assessed as reduction in cell viability incubated for 48 hrs by MTT assay. It is filed as toxicity, cell-based.
Data set [20] is described as follows: Stability in human plasma assessed as drug hydrolysis after 15 mins by HPLC analysis. In kind it is ADME, cell-free. Conditions: read-out: Drug degradation.
A short description of data set [21]: Stability in human plasma assessed as drug hydrolysis after 5 hrs by HPLC analysis. It is filed as ADME, cell-free. The note with it: read-out: Drug degradation.
A short description of data set [22]: Stability in human plasma assessed as parent compound remaining after 18 hrs by HPLC analysis. In kind it is ADME, cell-free. Conditions: read-out: Stability.
For data set [23], the system named is SW480. Put plainly: Antitumor activity against human SW480 cells xenografted in BALB/c mouse assessed as increase in body weight at 0.1 mg/kg, iv administered once every 2 days and measured after 12 days. In kind it is functional, organism-based. Conditions: time 12.0 day.
For data set [24], the system named is SW480. Put plainly: Antitumor activity against human SW480 cells xenografted in BALB/c mouse assessed as reduction in tumor volume at 0.1 mg/kg, iv administered once every 2 days and measured on day 8. Conditions: time 8.0 day. It is filed as functional, organism-based.
Data set [25] has as its system SW480. Put plainly: Antitumor activity against human SW480 cells xenografted in BALB/c mouse assessed as reduction in tumor volume at 0.1 mg/kg, iv administered once every 2 days and measured on day 18. It is filed as functional. The arrangement: scale not given: the % may be the effect or the level left. The note with it: time 18 day.
Data set [26] relates to SW480. Put plainly: Antitumor activity against human SW480 cells xenografted in BALB/c mouse assessed as tumor inhibition rate at 0.1 mg/kg, iv administered once every 2 days for 18 days. The arrangement: scale not given: the % may be the effect or the level left. In kind it is functional. The note with it: time 18 day.
Data set [27] has as its system SW480. Put plainly: Antitumor activity against human SW480 cells xenografted in BALB/c mouse assessed as tumor burden at 0.1 mg/kg, iv administered once every 2 days for 18 days (reference value: 1.88%). In kind it is functional. The note with it: time 18 day.
Data set [28] deals with SW480. Description: Antitumor activity against human SW480 cells xenografted in BALB/c mouse assessed as tumor growth inhibition at 0.1 mg/kg, iv administered once every 2 days for 18 days. It is filed as functional, organism-based. The note with it: time 18.0 day.
The subject of data set [29] is SW480. Put plainly: Antitumor activity against human SW480 cells xenografted in BALB/c mouse assessed as decrease in Ki67 expression at 0.1 mg/kg, iv administered once every 2 days for 18 days by immunohistochemical analysis. In kind it is functional, organism-based. Conditions: time 18.0 day.
A short description of data set [30]: Drug distribution in BALB/c mouse tumor xenografted with human A549 cells at 22.23 mg/kg, iv measured after 24 hrs by HPLC analysis. In kind it is ADME, organism-based, Neoplasm. Conditions: in vivo.
The nature of data set [31]: Drug distribution in BALB/c mouse spleen xenografted with human A549 cells at 22.23 mg/kg, iv measured after 24 hrs by HPLC analysis. It is filed as ADME, organism-based. Conditions: in vivo.
The nature of data set [32]: Drug distribution in BALB/c mouse heart xenografted with human A549 cells at 22.23 mg/kg, iv measured after 24 hrs by HPLC analysis. It is filed as ADME, organism-based. Conditions: in vivo.
Data set [33] is described as follows: Drug distribution in BALB/c mouse tumor xenografted with human A549 cells at 22.23 mg/kg, sc measured after 24 hrs by HPLC analysis. In kind it is ADME, organism-based, Neoplasm. Conditions: in vivo.
Data set [34] can be described thus: Drug distribution in BALB/c mouse lung xenografted with human A549 cells at 22.23 mg/kg, sc measured after 24 hrs by HPLC analysis. Conditions: in vivo. In kind it is ADME, organism-based.
A short description of data set [35]: Drug distribution in BALB/c mouse heart xenografted with human A549 cells at 22.23 mg/kg, sc measured after 24 hrs by HPLC analysis. The note with it: in vivo. In kind it is ADME, organism-based.
Data set [36] concerns SW480. Put plainly: Antitumor activity against human SW480 cells xenografted in BALB/c mouse assessed as fold decrease in cell viability by measuring Ki67 positive cells at 0.1 mg/kg, iv administered once every 2 days for 18 days by immunohistochemical analysis relative to CPT. It is filed as functional. The note with it: time 18 day.
In data set [37] the test system is SW480. Put plainly: Antitumor activity against human SW480 cells xenografted in BALB/c mouse assessed as fold decrease in cell viability by measuring Ki67 positive cells at 0.1 mg/kg, iv administered once every 2 days for 18 days by immunohistochemical analysis relative to control. The note with it: time 18 day. In kind it is functional.

Molecules are shown by their SMILES. Calls of active or inactive are those of the source. No cut-off for these calls is given here.

Broadly, the IC50 is the concentration needed to halve the response being measured.

Take `CC[C@@]1(O)C(=O)OCc2c1cc1n(c2=O)Cc2cc3ccccc3nc2-1` [CAMPTOTHECIN]: the figures for the viability at 25 µM with HT-29 [1] and in the data set with SW480 [2] were 32.4% and 29.5%, respectively. The IC50 in the data set on HT-29 [3] was 2350 nM; in the data set with SW480 [4], 8560 nM. Besides, the outcome in the data set with SW480 [5] was inactive. Further, the Activity came out at 6.8% in the data set on SW480 [6], 56% with SW480 [7] and 1.59% in the data set with SW480 [8]. Also, the Drug uptake entry in data set [9], in data set [10], in data set [11], in data set [12], in data set [13] and in data set [14] was “Active” in each case.
As for `CC[C@@]1(OC(=O)CCCOCCOCCONC(=O)CCN2C(=O)CC(SC[C@H](NC(C)=O)C(=O)N[C@H]3CSSC[C@@H](C(=O)O)NC(=O)[C@H](CC(=O)O)NC(=O)[C@@H]4CCCN4C(=O)CNC(=O)[C@H](CCCCN)NC(=O)[C@H](CC(=O)O)NC(=O)CNC(=O)[C@H](CCCNC(=N)N)NC3=O)C2=O)C(=O)OCc2c1cc1n(c2=O)Cc2cc3ccccc3nc2-1` (stereo partly drawn), the Drug uptake entry in [15], in [30], in [31], in data set [32], in [33] and in data set [34] was “Active” each time. In data set [35], the Drug uptake result is given as “Active”. The outcome in the data set with HT-29 [16], in the data set with HT-29 [17], with SW480 [23], with SW480 [24], with SW480 [28] and with SW480 [29] was Active. Besides, the results for the viability at 25 µM in the data set on HT-29 [1] and in the data set with SW480 [2] were 16.3% and 22.3%, respectively. For the same compound, the values for the half-inhibitory concentration (IC50) with HT-29 [3] and with SW480 [4] were 350 nM and 320 nM, respectively. Moreover, the results for the “Ratio IC50” value with HT-29 [18] and with SW480 [19] were 6.7 and 24, respectively. Besides, the Activity result in the data set on THP-1 is on record as “Non-Toxic”; with CCD-18Co, “Non-Toxic”; in the data set with SW480 [25], 39.7%; in the data set on SW480 [26], 75%; in the data set with SW480 [27], 1.44%. For the same compound, the metabolised at 0.25 h in data set [20] stood at 1.4%. Further, the metabolised at 5 h in data set [21] came out at 15.5%. For the same compound, in data set [22], the remaining at 18 h worked out at 76.4%. Further, the “fold change (FC)” value in the data set with SW480 [36] is 6.4; in the data set with SW480 [37], 10.5.
